Here are results for 6 compounds from ChEMBL document CHEMBL3872251, “Computational approach for the assessment of inhibitory potency against beta-amyloid aggregation” (Bioorg Med Chem Lett, 2017).

One may read the IC50 as the concentration at which inhibition is half-maximal. The term inhibition denotes how much of the control response was suppressed. A lower inhibition goes with a response near the control.

System in the first assay: not listed separately
Put plainly: Inhibition of Tg2576 mouse amyloid beta40 aggregation measured after 3 days by ELISA. (ELISA stands for enzyme-linked immunosorbent assay.)
For `COc1cc(/C=C/C(=O)CC(=O)/C=C/c2ccc(O)c(OC)c2)ccc1O` [CURCUMIN], 1000 nM corresponded to half-maximal inhibition (IC50).

For the next assay, the species on record is Homo sapiens. Put plainly: Inhibition of amyloid beta (17 to 42) (unknown origin) aggregation at 10 uM by thioflavin T-based fluorimetric assay.
In the case of `CCN(CC)CCCCCCN1C(=O)c2ccccc2C1=O`, the inhibition was 0%.

As for `O=C1c2ccccc2C(=O)N1CCCCCNCc1ccccc1`, the inhibition turned out to be 10%.

Turning to `O=C1c2ccccc2C(=O)N1CCCNC1CCN(Cc2ccccc2)CC1`, the inhibition is 10%.

Consider `CCN(CC)CCCCCCCN1C(=O)c2ccccc2C1=O`, for which the inhibition came to 39.4%.

`c1ccc(CN2CCC(NCCCCCCn3ccc4ccccc43)CC2)cc1` registered an inhibition of 56%.
